{
  "source": "the kinase profiling compilation of Christmann-Franck et al. (2016)",
  "test_in_all_cases": "KINOMEscan competition binding",
  "key": {"AKT2 (human)": {"biological_target": "AKT2 (human) (UniProt P31751)", "conditions": "compound 10.0 µM"}, "CAMK2D (human)": {"biological_target": "CAMK2D (human) (UniProt Q13557)", "conditions": "compound 10.0 µM"}, "CDK2 (human)": {"biological_target": "CDK2 (human) (UniProt P24941)", "conditions": "compound 10.0 µM"}, "CDK7 (human)": {"biological_target": "CDK7 (human) (UniProt P50613)", "sequence (P50613 whole entry, looked up)": "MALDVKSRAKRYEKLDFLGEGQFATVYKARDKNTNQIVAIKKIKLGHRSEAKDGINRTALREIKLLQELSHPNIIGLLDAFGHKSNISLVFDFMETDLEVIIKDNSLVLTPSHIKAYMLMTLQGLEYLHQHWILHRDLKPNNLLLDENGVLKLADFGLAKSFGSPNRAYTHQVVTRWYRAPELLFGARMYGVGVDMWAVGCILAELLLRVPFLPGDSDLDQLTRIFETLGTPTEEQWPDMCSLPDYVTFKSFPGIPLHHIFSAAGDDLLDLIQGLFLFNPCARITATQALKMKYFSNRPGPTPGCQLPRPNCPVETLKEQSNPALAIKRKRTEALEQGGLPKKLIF", "conditions": "compound 10.0 µM"}, "CIT (human)": {"biological_target": "CIT (human) (UniProt O14578)", "conditions": "compound 10.0 µM"}, "CSK (human)": {"biological_target": "CSK (human) (UniProt P41240)", "sequence (P41240 whole entry, looked up)": "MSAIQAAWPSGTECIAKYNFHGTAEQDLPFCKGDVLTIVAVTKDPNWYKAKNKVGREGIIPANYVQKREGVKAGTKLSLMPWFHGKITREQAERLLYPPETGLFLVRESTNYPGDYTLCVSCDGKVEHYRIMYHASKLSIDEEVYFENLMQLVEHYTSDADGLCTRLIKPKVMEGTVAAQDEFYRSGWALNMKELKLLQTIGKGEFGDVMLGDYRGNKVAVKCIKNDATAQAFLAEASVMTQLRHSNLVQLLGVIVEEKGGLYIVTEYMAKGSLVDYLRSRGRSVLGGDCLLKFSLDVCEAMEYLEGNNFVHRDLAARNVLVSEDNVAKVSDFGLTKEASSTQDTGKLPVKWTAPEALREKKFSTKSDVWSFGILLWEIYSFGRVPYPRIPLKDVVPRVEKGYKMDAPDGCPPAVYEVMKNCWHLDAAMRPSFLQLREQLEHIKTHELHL", "conditions": "compound 10.0 µM"}, "CSNK2A2 (human)": {"biological_target": "CSNK2A2 (human) (UniProt P19784)", "conditions": "compound 10.0 µM"}, "DAPK2 (human)": {"biological_target": "DAPK2 (human) (UniProt Q9UIK4)", "conditions": "compound 10.0 µM"}, "DDR1 (human)": {"biological_target": "DDR1 (human) (UniProt Q08345)", "conditions": "compound 10.0 µM"}, "EIF2AK2 (human)": {"biological_target": "EIF2AK2 (human) (UniProt P19525)", "conditions": "compound 10.0 µM"}, "EPHA1 (human)": {"biological_target": "EPHA1 (human) (UniProt P21709)", "conditions": "compound 10.0 µM"}, "EPHB4 (human)": {"biological_target": "EPHB4 (human) (UniProt P54760)", "conditions": "compound 10.0 µM"}, "[1]": {"tested_on": "FGFR3 (human), P22607 [G697C]", "conditions": "compound 10.0 µM"}, "[2]": {"tested_on": "FLT3 (human), P36888 [D835Y]", "conditions": "compound 10.0 µM"}, "[3]": {"tested_on": "FLT3 (human), P36888 [ITD]", "conditions": "compound 10.0 µM"}, "FYN (human)": {"biological_target": "FYN (human) (UniProt P06241)", "conditions": "compound 10.0 µM"}, "GAK (human)": {"biological_target": "GAK (human) (UniProt O14976)", "conditions": "compound 10.0 µM"}, "HCK (human)": {"biological_target": "HCK (human) (UniProt P08631)", "conditions": "compound 10.0 µM"}, "HIPK1 (human)": {"biological_target": "HIPK1 (human) (UniProt Q86Z02)", "conditions": "compound 10.0 µM"}, "IGF1R (human)": {"biological_target": "IGF1R (human) (UniProt P08069)", "conditions": "compound 10.0 µM"}, "[4]": {"tested_on": "KIT (human), P10721 [L576P]", "conditions": "compound 10.0 µM"}, "LCK (human)": {"biological_target": "LCK (human) (UniProt P06239)", "conditions": "compound 10.0 µM"}, "LRRK2 (human)": {"biological_target": "LRRK2 (human) (UniProt Q5S007)", "sequence (Q5S007 whole entry, looked up)": "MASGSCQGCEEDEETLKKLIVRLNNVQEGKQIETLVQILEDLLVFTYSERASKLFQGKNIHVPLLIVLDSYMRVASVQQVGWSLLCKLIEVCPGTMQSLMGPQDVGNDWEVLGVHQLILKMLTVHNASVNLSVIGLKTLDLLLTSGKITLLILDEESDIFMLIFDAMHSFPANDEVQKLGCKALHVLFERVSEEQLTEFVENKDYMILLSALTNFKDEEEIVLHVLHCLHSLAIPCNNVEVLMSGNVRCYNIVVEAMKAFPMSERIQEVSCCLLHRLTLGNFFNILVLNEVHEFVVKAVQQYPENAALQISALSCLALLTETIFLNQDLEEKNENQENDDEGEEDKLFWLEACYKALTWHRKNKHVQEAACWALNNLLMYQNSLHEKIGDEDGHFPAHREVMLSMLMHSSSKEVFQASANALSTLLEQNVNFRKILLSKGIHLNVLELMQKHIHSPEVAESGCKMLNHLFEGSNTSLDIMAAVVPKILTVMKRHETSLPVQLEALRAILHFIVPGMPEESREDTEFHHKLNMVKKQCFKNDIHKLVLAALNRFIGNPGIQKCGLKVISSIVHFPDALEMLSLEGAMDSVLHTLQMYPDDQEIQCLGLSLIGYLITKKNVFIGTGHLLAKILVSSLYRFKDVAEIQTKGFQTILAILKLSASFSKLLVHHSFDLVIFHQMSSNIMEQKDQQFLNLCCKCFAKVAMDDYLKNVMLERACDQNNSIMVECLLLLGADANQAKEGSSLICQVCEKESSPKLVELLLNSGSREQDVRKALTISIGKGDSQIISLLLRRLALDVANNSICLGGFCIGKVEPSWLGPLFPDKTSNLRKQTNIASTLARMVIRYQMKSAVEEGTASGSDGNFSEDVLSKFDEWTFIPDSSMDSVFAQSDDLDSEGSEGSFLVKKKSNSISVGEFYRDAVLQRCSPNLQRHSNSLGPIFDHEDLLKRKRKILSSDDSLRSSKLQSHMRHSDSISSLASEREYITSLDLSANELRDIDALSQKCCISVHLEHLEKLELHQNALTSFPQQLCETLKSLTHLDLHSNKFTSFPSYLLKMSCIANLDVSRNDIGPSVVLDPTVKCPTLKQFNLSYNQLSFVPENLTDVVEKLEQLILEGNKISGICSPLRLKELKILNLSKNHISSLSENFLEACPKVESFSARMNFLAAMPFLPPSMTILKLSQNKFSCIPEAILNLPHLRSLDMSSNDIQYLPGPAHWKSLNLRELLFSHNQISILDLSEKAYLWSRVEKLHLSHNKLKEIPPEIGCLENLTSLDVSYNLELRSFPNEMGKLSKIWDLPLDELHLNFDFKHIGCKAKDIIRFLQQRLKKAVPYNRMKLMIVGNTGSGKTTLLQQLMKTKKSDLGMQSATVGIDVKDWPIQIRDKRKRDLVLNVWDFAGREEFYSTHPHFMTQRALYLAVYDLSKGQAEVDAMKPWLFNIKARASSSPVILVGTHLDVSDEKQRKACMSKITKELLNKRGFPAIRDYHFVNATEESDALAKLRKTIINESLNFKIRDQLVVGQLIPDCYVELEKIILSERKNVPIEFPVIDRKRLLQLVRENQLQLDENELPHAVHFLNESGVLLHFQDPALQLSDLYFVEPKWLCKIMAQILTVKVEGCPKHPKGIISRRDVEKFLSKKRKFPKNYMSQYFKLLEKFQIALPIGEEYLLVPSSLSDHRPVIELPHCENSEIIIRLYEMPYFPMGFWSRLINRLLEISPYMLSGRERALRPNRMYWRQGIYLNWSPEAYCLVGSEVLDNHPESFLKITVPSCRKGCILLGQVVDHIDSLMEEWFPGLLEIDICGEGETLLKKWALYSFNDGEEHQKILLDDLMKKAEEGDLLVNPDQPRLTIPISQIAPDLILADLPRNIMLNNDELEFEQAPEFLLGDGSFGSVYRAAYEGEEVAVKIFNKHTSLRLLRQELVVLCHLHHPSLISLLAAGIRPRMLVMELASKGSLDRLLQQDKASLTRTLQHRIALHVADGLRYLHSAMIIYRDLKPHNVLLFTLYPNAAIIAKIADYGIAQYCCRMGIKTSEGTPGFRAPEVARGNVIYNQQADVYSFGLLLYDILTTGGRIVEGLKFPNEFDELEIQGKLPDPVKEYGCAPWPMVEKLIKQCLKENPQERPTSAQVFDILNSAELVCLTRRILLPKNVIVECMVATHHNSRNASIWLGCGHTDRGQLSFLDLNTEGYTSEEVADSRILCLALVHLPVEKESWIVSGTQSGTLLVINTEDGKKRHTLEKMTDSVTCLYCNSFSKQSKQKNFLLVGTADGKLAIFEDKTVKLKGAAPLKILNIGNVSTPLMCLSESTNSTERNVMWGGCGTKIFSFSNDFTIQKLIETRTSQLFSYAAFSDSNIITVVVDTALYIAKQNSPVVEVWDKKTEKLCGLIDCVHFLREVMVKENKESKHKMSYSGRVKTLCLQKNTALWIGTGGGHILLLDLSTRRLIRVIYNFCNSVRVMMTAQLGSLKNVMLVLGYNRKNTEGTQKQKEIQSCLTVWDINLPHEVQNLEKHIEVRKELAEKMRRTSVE"}, "MAP3K6 (human)": {"biological_target": "MAP3K6 (human) (UniProt O95382)", "conditions": "compound 10.0 µM"}, "MAPK14 (human)": {"biological_target": "MAPK14 (human) (UniProt Q16539)", "conditions": "compound 10.0 µM"}, "MYLK3 (human)": {"biological_target": "MYLK3 (human) (UniProt Q32MK0)", "conditions": "compound 10.0 µM"}, "NTRK2 (human)": {"biological_target": "NTRK2 (human) (UniProt Q16620)", "conditions": "compound 10.0 µM"}, "PHKG2 (human)": {"biological_target": "PHKG2 (human) (UniProt P15735)", "conditions": "compound 10.0 µM"}, "PIK3CA (human)": {"biological_target": "PIK3CA (human) (UniProt P42336)", "conditions": "compound 10.0 µM"}, "[5]": {"tested_on": "PIK3CA (human), P42336 [H1047L]", "conditions": "compound 10.0 µM"}, "PIK3CB (human)": {"biological_target": "PIK3CB (human) (UniProt P42338)", "sequence (P42338 whole entry, looked up)": "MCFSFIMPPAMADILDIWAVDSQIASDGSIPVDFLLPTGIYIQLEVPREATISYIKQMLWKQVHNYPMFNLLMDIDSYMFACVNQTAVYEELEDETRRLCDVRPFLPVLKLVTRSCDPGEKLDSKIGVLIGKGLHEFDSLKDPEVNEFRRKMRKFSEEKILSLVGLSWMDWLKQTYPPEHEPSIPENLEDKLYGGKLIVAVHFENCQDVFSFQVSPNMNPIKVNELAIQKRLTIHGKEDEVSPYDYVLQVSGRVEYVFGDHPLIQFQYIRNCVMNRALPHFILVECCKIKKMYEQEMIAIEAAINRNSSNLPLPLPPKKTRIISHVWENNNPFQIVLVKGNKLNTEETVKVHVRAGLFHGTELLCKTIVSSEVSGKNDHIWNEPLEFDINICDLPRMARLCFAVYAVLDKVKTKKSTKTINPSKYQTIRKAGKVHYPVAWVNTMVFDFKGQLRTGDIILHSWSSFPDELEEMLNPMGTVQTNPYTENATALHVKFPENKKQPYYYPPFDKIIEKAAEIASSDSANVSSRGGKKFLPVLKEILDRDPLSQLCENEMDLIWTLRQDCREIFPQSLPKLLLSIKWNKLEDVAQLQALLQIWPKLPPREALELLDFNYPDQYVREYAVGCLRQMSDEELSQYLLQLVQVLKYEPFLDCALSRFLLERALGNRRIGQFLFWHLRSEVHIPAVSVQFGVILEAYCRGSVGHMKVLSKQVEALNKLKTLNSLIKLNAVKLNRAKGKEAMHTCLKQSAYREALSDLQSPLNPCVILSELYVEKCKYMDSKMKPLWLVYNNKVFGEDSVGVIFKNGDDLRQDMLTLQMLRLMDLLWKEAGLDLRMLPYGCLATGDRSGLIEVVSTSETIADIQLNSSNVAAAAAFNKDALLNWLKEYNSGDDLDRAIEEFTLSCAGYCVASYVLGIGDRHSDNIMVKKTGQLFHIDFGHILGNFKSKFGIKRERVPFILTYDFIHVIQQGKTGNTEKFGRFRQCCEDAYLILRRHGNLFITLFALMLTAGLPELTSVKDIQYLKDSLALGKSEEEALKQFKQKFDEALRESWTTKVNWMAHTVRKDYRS", "conditions": "compound 10.0 µM"}, "PRKX (human)": {"biological_target": "PRKX (human) (UniProt P51817)", "conditions": "compound 10.0 µM"}, "RET (human)": {"biological_target": "RET (human) (UniProt P07949)", "conditions": "compound 10.0 µM"}, "RIOK3 (human)": {"biological_target": "RIOK3 (human) (UniProt O14730)", "conditions": "compound 10.0 µM"}, "RPS6KA2 KD2 (human)": {"biological_target": "RPS6KA2 KD2 (human) (UniProt Q15349)", "sequence (Q15349 whole entry, looked up)": "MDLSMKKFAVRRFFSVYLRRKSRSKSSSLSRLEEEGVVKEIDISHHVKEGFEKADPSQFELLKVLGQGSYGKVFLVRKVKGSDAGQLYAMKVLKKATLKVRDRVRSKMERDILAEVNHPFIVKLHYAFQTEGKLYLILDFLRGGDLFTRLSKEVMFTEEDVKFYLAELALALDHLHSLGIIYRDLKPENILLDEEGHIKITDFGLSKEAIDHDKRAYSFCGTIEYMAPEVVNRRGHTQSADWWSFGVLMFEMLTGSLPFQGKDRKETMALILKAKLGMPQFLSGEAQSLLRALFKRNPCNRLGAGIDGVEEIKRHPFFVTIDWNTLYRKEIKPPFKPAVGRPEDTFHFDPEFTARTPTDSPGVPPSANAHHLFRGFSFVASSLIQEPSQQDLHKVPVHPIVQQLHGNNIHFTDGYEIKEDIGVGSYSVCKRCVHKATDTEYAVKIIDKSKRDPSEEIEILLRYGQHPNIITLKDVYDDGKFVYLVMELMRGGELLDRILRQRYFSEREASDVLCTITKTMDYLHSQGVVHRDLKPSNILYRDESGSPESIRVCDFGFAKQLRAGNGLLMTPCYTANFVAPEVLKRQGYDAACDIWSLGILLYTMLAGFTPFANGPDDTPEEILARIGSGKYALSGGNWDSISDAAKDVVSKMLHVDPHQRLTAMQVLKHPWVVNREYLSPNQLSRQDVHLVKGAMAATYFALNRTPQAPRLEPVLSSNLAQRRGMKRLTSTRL"}, "SRMS (human)": {"biological_target": "SRMS (human) (UniProt Q9H3Y6)", "conditions": "compound 10.0 µM"}, "STK17B (human)": {"biological_target": "STK17B (human) (UniProt O94768)", "conditions": "compound 10.0 µM"}, "STK24 (human)": {"biological_target": "STK24 (human) (UniProt Q9Y6E0)", "conditions": "compound 10.0 µM"}, "STK3 (human)": {"biological_target": "STK3 (human) (UniProt Q13188)", "conditions": "compound 10.0 µM"}, "STK32A (human)": {"biological_target": "STK32A (human) (UniProt Q8WU08)", "conditions": "compound 10.0 µM"}, "VRK2 (human)": {"biological_target": "VRK2 (human) (UniProt Q86Y07)", "conditions": "compound 10.0 µM"}},
  "data": [
    {"smiles": "COc1cc(C(=O)N2CCC(N3CCN(C)CC3)CC2)ccc1Nc1ncc2c(n1)N(C)c1ccccc1C(=O)N2C", "values": [
      {"measurement": "kinase still bound, per cent of control", "setting": "AKT2 (human)", "result": 100, "unit": "%"},
      {"measurement": "kinase still bound, per cent of control", "setting": "CAMK2D (human)", "result": 28, "unit": "%"},
      {"measurement": "residual activity", "setting": "CDK2 (human)", "result": 100, "unit": "%"},
      {"measurement": "residual activity", "setting": "CDK7 (human)", "result": 86, "unit": "%"},
      {"measurement": "kinase still bound, per cent of control", "setting": "CIT (human)", "result": 99, "unit": "%"},
      {"measurement": "kinase still bound, per cent of control", "setting": "CSK (human)", "result": 90, "unit": "%"},
      {"measurement": "kinase still bound, per cent of control", "setting": "CSNK2A2 (human)", "result": 93, "unit": "%"},
      {"measurement": "kinase still bound, per cent of control", "setting": "DAPK2 (human)", "result": 67, "unit": "%"},
      {"measurement": "kinase still bound, per cent of control", "setting": "DDR1 (human)", "result": 100, "unit": "%"},
      {"measurement": "kinase still bound, per cent of control", "setting": "EIF2AK2 (human)", "result": 84, "unit": "%"},
      {"measurement": "kinase still bound, per cent of control", "setting": "EPHA1 (human)", "result": 100, "unit": "%"},
      {"measurement": "kinase still bound, per cent of control", "setting": "EPHB4 (human)", "result": 100, "unit": "%"},
      {"measurement": "kinase still bound, per cent of control", "setting": "[1]", "result": 85, "unit": "%"},
      {"measurement": "kinase still bound, per cent of control", "setting": "[2]", "result": 100, "unit": "%"},
      {"measurement": "kinase still bound, per cent of control", "setting": "[3]", "result": 100, "unit": "%"},
      {"measurement": "kinase still bound, per cent of control", "setting": "FYN (human)", "result": 100, "unit": "%"},
      {"measurement": "kinase still bound, per cent of control", "setting": "GAK (human)", "result": 16, "unit": "%"},
      {"measurement": "kinase still bound, per cent of control", "setting": "HCK (human)", "result": 100, "unit": "%"},
      {"measurement": "kinase still bound, per cent of control", "setting": "HIPK1 (human)", "result": 100, "unit": "%"},
      {"measurement": "residual activity", "setting": "IGF1R (human)", "result": 96, "unit": "%"},
      {"measurement": "kinase still bound, per cent of control", "setting": "[4]", "result": 100, "unit": "%"},
      {"measurement": "kinase still bound, per cent of control", "setting": "LCK (human)", "result": 100, "unit": "%"},
      {"measurement": "Kd", "setting": "LRRK2 (human)", "result": 20, "unit": "nM"},
      {"measurement": "kinase still bound, per cent of control", "setting": "LRRK2 (human); compound 10.0 µM", "result": 0, "unit": "%"},
      {"measurement": "kinase still bound, per cent of control", "setting": "MAP3K6 (human)", "result": 100, "unit": "%"},
      {"measurement": "kinase still bound, per cent of control", "setting": "MAPK14 (human)", "result": 87, "unit": "%"},
      {"measurement": "kinase still bound, per cent of control", "setting": "MYLK3 (human)", "result": 100, "unit": "%"},
      {"measurement": "kinase still bound, per cent of control", "setting": "NTRK2 (human)", "result": 100, "unit": "%"},
      {"measurement": "kinase still bound, per cent of control", "setting": "PHKG2 (human)", "result": 33, "unit": "%"},
      {"measurement": "kinase still bound, per cent of control", "setting": "PIK3CA (human)", "result": 74, "unit": "%"},
      {"measurement": "kinase still bound, per cent of control", "setting": "[5]", "result": 20, "unit": "%"},
      {"measurement": "kinase still bound, per cent of control", "setting": "PIK3CB (human)", "result": 96, "unit": "%"},
      {"measurement": "kinase still bound, per cent of control", "setting": "PRKX (human)", "result": 99, "unit": "%"},
      {"measurement": "kinase still bound, per cent of control", "setting": "RET (human)", "result": 100, "unit": "%"},
      {"measurement": "kinase still bound, per cent of control", "setting": "RIOK3 (human)", "result": 85, "unit": "%"},
      {"measurement": "Kd", "setting": "RPS6KA2 KD2 (human)", "result": 1000, "unit": "nM"},
      {"measurement": "kinase still bound, per cent of control", "setting": "RPS6KA2 KD2 (human); compound 10.0 µM", "result": 7.5, "unit": "%"},
      {"measurement": "kinase still bound, per cent of control", "setting": "SRMS (human)", "result": 77, "unit": "%"},
      {"measurement": "kinase still bound, per cent of control", "setting": "STK17B (human)", "result": 93, "unit": "%"},
      {"measurement": "kinase still bound, per cent of control", "setting": "STK24 (human)", "result": 87, "unit": "%"},
      {"measurement": "kinase still bound, per cent of control", "setting": "STK3 (human)", "result": 71, "unit": "%"},
      {"measurement": "kinase still bound, per cent of control", "setting": "STK32A (human)", "result": 100, "unit": "%"},
      {"measurement": "kinase still bound, per cent of control", "setting": "VRK2 (human)", "result": 99, "unit": "%"}
    ]}
  ]
}
